By pIC50 is commonly meant the negative decadic logarithm of the IC50, by convention in mol/L.

pIC50: −log10 of the molar value.

The record followed here is patent publication US20110172236A1, “SUBSTITUTED ARYL SULFONE DERIVATIVES AS CALCIUM CHANNEL BLOCKERS” (priority 2008, published 2011).

The assay concerns the target T1, Human Cav2.2 channels (Homo sapiens, UniProt Q00975).
T1 construct: expressed in transfected cells
In words: Fluorescent assay for Cav2.2 channels using potassium depolarization (Assay Example 1). It is filed as cell-based. The following applies: pre-incubation potassium concentration not stated. The source says: Assay Example 1: Fluorescent Assay for Cav2.2 Channels Using Potassium Depolarization to Initiate Channel Opening.
Human Cav2.2 channels were stably expressed in KEK293 cells along with alpha2-delta and beta subunits of voltage-gated calcium channels. An inwardly rectifying potassium channel (Kir2.3) was also expressed in these cells to allow more precise control of the cell membrane potential by extracellular potassium concentration. At low bath potassium concentration, the membrane potential is relatively negative, and is depolarized as the bath potassium concentration is raised. In this way, the bath potassium concentration can be used to regulate the voltage-dependent conformations of the channels. Compounds are incubated with cells in the presence of low (4 mM) potassium or elevated (12, 25 or 30 mM) potassium to determine the affinity for compound block of resting (closed) channels at 4 mM potassium or affinity for block of open and inactivated channels at 12, 25 or 30 mM potassium. After the incubation period, Cav2.2 channel opening is triggered by addition of higher concentration of potassium (70 mM final concentration) to further depolarize the cell. The degree of state-dependent block can be estimated from the inhibitory potency of compounds after incubation in different potassium concentrations.
Calcium influx through Cav2.2 channels is determined using a calcium-sensitive fluorescent dye in combination with a fluorescent plate reader. Fluorescent changes were measured with either a VIPR (Aurora Instruments) or FLIPR (Molecular Devices) plate reader.
• 1. Seed cells in Poly-D-Lysine Coated 96- or 384-well plate and keep in a 37° C.-10% CO2 incubator overnight • 2. Remove media^1, wash cells with 0.2 ml (96-well plate) or 0.05 ml (384-well plate) Dulbecco's Phosphate Buffered Saline (D-PBS) with calcium & magnesium (Invitrogen; 14040) • 3. Add 0.1 ml (96-well plate) or 0.05 ml (384-well plate) of 4 μM fluo-4 (Molecular Probes; F-14202) and 0.02% Pluronic acid (Molecular Probes; P-3000) prepared in D-PBS with calcium & magnesium (Invitrogen; 14040) supplemented with 10 mM Glucose & 10 mM Hepes/NaOH; pH 7.4 • 4. Incubate in the dark at 25° C. for 60-70 min • 5. Remove dye^2, wash cells with 0.1 ml (96-well plate) or 0.06 ml (384-well plate) of 4, 12, 25, or 30 mM Potassium Pre-polarization Buffer. (PPB) • 6. Add 0.1 ml (96-well plate) or 0.03 ml (384-well plate) of 4, 12, 25, 30 mM PPB. with or without test compound • 7. Incubate in the dark at 25° C. for 30 min • 8. Read cell plate on VIPR instrument, Excitation=480 nm, Emission 535 nm • 9. With VIPR continuously reading, add 0.1 ml (96-well plate) or 0.03 ml (384-well plate) of Depolarization Buffer, which is 2× the final assay concentration, to the cell plate.

T1 sequence (Q00975 whole entry): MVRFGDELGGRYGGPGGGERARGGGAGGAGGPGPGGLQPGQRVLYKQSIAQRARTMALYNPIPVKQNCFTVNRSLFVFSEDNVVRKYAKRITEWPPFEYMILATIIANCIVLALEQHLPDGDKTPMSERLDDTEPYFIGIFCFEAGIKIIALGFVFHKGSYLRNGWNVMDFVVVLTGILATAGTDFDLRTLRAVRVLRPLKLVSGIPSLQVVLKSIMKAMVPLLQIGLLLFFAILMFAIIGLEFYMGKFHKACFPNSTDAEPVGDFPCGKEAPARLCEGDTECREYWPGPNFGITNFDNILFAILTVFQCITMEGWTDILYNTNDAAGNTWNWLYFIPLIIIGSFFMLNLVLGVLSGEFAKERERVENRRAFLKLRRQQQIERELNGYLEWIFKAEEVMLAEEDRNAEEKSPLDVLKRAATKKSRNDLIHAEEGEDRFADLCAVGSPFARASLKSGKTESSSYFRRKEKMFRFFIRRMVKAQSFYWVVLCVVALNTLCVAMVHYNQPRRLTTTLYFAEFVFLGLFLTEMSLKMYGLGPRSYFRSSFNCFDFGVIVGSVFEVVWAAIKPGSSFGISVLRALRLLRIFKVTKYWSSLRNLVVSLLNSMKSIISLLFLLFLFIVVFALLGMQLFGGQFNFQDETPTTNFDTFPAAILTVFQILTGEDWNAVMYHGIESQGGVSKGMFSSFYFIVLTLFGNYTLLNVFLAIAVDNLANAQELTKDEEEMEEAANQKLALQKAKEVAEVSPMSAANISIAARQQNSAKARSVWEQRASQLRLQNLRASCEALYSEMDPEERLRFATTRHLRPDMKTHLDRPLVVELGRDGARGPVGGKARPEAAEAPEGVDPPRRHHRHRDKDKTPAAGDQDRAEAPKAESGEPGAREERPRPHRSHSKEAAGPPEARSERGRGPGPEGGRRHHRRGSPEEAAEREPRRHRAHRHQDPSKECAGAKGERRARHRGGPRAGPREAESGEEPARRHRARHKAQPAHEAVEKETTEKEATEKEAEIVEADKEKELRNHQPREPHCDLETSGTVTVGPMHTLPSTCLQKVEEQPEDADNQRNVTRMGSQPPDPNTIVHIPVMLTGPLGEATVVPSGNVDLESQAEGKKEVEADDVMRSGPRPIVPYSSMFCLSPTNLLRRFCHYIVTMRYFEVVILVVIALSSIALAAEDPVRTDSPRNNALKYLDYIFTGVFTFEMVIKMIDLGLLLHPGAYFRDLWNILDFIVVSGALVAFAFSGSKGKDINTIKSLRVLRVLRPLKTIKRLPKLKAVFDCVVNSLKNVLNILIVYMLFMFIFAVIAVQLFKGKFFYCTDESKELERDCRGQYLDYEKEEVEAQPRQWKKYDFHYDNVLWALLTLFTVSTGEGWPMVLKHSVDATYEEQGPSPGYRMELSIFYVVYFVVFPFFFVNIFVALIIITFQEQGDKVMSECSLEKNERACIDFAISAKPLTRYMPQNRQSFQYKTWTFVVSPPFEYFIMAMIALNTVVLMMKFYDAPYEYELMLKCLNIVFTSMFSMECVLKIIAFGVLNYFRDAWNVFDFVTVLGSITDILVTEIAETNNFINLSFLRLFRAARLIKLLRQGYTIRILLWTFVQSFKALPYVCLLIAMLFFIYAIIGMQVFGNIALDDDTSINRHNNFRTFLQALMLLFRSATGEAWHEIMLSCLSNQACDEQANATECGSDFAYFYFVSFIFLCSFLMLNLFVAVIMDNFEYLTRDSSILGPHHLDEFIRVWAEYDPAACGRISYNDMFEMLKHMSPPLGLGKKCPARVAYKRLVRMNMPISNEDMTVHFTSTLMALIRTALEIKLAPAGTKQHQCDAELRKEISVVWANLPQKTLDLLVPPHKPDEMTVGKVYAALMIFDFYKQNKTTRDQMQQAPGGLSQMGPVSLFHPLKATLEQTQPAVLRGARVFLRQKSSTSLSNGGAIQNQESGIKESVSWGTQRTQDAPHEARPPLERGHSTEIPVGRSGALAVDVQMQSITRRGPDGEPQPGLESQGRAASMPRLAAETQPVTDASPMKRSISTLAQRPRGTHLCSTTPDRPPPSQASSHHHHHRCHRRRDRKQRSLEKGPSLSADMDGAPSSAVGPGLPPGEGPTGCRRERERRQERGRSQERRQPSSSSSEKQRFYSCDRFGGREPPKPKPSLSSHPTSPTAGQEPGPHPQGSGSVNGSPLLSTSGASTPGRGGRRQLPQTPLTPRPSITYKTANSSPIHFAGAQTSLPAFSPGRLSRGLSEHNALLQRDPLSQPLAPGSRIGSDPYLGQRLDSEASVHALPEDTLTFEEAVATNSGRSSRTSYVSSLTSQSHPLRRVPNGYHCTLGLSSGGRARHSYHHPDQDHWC

On to `CC(C)(C1CCN(Cc2ccc(F)cc2)C(=O)C1)S(=O)(=O)c1cccc(C(F)(F)F)c1` (stereo not drawn), for which the pIC50 was 6.66.
As to `CC(C)(C1CCN(c2ccccc2)C(=O)C1)S(=O)(=O)c1cccc(C(F)(F)F)c1` (stereo not drawn), the pIC50 is 6.44.
In the case of `CC(C)([C@H]1CCN(c2ccc(C(F)(F)F)cn2)C(=O)C1)S(=O)(=O)c1cccc(C(F)(F)F)c1`, the pIC50 was 6.19.
Turning to `CC(C)([C@@H]1CCN(c2ccc(C(F)(F)F)cn2)C(=O)C1)S(=O)(=O)c1cccc(C(F)(F)F)c1`, the negative-log IC50 (pIC50) is 6.55.
In the case of `CC(C)(C1CCC(=O)N(Cc2ccc(Cl)cc2)C1)S(=O)(=O)c1cccc(C(F)(F)F)c1` (stereo not drawn), the pIC50 is 6.05.
Regarding `CC(C)(C1CC(=O)N(c2ccc(C(F)(F)F)cc2)C1)S(=O)(=O)c1cccc(C(F)(F)F)c1` (stereo not drawn), the pIC50 is 6.10.
